How the values were obtained:
MIAPaCa-2 cell line = assay: Cytotoxicity assay (MTT, 72 hours, daily administration) in MIAPaCa-2; conditions: Homo sapiens, MIA PaCa-2, read-out: % VIABILITY ± S.D.
Procedure: (§2) Human pancreatic ductal adenocarcinoma (PANC-1 and MIAPaCa-2) cell lines were purchased by Sigma Aldrich (Milan, Italy) and cultured in DMEM high glucose medium (EuroClone, Milan, Italy) supplemented with 10% of fetal bovine serum (FBS), 2 mM L-glutamine, 100 IU/mL penicillin, 100 mg streptomycin and 1 mM sodium pyruvate. Cell lines were maintained at 37° C. with 5% CO2 and 95% of humidity.
(§3) 3×10^4 cells/mL were seeded in 96-well plates in a final volume of 100 L/well. After one day of incubation, compounds or vehicles, alone or in combination, were added and six replicates were used for each treatment and all experiments were repeated three times. In all the experiments, the treatment was daily added, after washing with fresh medium. After 72 hours cell viability was investigated by adding 0.8 mg/mL of 3-[4,5-dimethylthiazol-2-yl]-2,5 diphenyl tetrazolium bromide (MTT) (Sigma Aldrich) to the media. After 3 h the supernatant was removed, and the pellet of salt crystals was solubilized with 100 μL/well of DMSO. The absorbance of the sample against a background control was measured at 570 nm using an ELISA reader microliter plate (BioTek Instruments, Winooski, VT, USA).
(§4) Cytotoxicity in PDAC cell lines: The effect of CBD, MLT and AKBA in reducing cell viability was evaluated at 72 hours, post daily administration, in PDAC cell lines. Cells were treated with different doses of CBD, MLT and AKBA (up to 1 mg) and percentage of cell viability was evaluated by the MTT assay. […] The compounds were administered daily for 72 hours, as in previous experiments at the desired doses. […] MTT assay was used to analyse the cell cytotoxicity.

[1] = test system: U251 Glioblastoma cell line; assay: Cytotoxicity assay (MTT, 72 hours, daily administration) in U251; type: cell-based; conditions: Homo sapiens, U-251, read-out: % VIABILITY ± S.D.
Source text: (§1) The combinations were effective in other human tumor cell lines and we tested in glioblastoma cell line and endometrial cancer cell Additional tests include data obtained from two independent experiments, six wells for dose.

[2] = test system: PCEM004a endometrial cancer cell line; assay: Cytotoxicity assay (MTT, 72 hours, daily administration) in PCEM004a; type: cell-based; conditions: Homo sapiens, read-out: % VIABILITY ± S.D.
Source text: as §1

[3] = test system: pancreatic adenocarcinoma associated genes; assay: TaqMan Array gene expression in PANC-1, normalized for GAPDH; conditions: 24 hs, CBD 3.8, MLT 200, AKBA 7.5 micrograms/ml
Procedure: Total RNA from untreated or CBD, MLT, AKBA alone and in combination treated cell lines was extracted using Rneasy Mini kit (Qiagen, Milan, Italy). One microgram of total RNA from each sample was subjected to reverse transcription in a total volume of 20 μL using the High-Capacity cDNA Archive Kit (Applied Biosystem, Foster City, […], USA) according to the instructions. cDNAs were analyzed by qRT-PCR performed using an IQ5 Multicolor Real time PCR Detection system. Quantitative real-time gene expression was performed with the TaqMan® Array Human Pancreatic Adenocarcinoma 96-well Plate, containing 92 assays to pancreatic adenocarcinoma associated genes and 4 assays to candidate endogenous control genes, was purchased (Thermo Fisher, Grand Island, NY, USA) and used to evaluate the treatments in modulating PDAC-related genes (Table 1). Measurement of different housekeeping genes (GAPDH; HPRT1; GUSB) on the samples was used to normalize mRNA content. The gene expression levels of treated cell lines were expressed as relative fold compared with untreated or vehicle-treated cells.
To elucidate the molecular events induced by CBD, MLT and AKBA alone and in combination, 92 genes involved in PDAC progression and aggressiveness were evaluated by Taqman Array. Both cell lines were treated with CBD, MLT and AKBA alone and in combination, and the molecular pathways of PDAC associated gene were evaluated.
Target mRNA levels were normalized for GAPDH expression.

PANC-1 cell line = assay: Cytotoxicity assay (MTT, 72 hours, daily administration) in PANC-1; conditions: Homo sapiens, PANC-1, read-out: % VIABILITY ± S.D.
Procedure: as §2, §3, §4

## COc1ccc2[nH]cc(CCNC(C)=O)c2c1 [MLT, N-[2-(5-methoxy-1H-indol-3-yl)ethyl]acetamide]
MIAPaCa-2 cell line
  viability at 100 µg/mL: 100 ± 8.8%
  viability at 200 µg/mL: 87.8 ± 8.2%
  viability at 400 µg/mL: 78.2 ± 8.5%
  viability at 800 µg/mL: 12.5 ± 0.8%
[1]
  viability at 100 µg/mL: 100 ± 2.3%
  viability at 200 µg/mL: 65.4 ± 4.4%
  viability at 400 µg/mL: 58.2 ± 4.1%
  viability at 800 µg/mL: 17 ± 1.1%
[2]
  viability at 100 µg/mL: 96.5 ± 8.2%
  viability at 200 µg/mL: 90.4 ± 6.2%
  viability at 400 µg/mL: 80.1 ± 5.3%
  viability at 800 µg/mL: 31.3 ± 2.8%
[3]; VEI 0.00
  AKT3 mRNA relative expression: 0.00
  ARHGEF7 mRNA relative expression: 0.017
  BCL2 mRNA relative expression: 0.00
  CCND2 mRNA relative expression: 0.00
  CDKN2B mRNA relative expression: 1.65
  CYP2E1 mRNA relative expression: 0.00
  EGF mRNA relative expression: 0.00
  IGF1 mRNA relative expression: 0.00
  IL6 mRNA relative expression: 0.00
  KDR mRNA relative expression: 0.00
  KIT mRNA relative expression: 0.01
  MAPK3 mRNA relative expression: 0.00
  MMP1 mRNA relative expression: 0.07
  MMP3 mRNA relative expression: 0.00
  TGFA mRNA relative expression: 0.22
  TGFB2 mRNA relative expression: 0.00
[3]; VEI 0.01
  JAK2 mRNA relative expression: 0.01
  JAK3 mRNA relative expression: 0.00
  MMP7 mRNA relative expression: 0.01
  MMP9 mRNA relative expression: 0.04
  PK3CA mRNA relative expression: 0.00
  RAC2 mRNA relative expression: 0.01
  RB1 mRNA relative expression: 0.03
  TGFB3 mRNA relative expression: 0.00
[3]; VEI 0.02
  TGFBR1 mRNA relative expression: 0.00
[3]; VEI 0.03
  BRCA2 mRNA relative expression: 0.34
  CDKN2D mRNA relative expression: 0.04
  MDM2 mRNA relative expression: 0.00
  RHOB mRNA relative expression: 0.03
[3]; VEI 0.04
  CDKN2C mRNA relative expression: 0.14
  PK3R1 mRNA relative expression: 0.02
  PTGS2 mRNA relative expression: 0.02
  STATSB mRNA relative expression: 0.45
[3]; VEI 0.05
  MAPK1 mRNA relative expression: 0.02
  SMAD2 mRNA relative expression: 0.19
[3]; VEI 0.06
  CCND1 mRNA relative expression: 0.10
  MAP2K2 mRNA relative expression: 0.08
  PK3CD mRNA relative expression: 0.06
  TGFBR2 mRNA relative expression: 0.00
  VEGFA mRNA relative expression: 0.03
  VEGFB mRNA relative expression: 0.05
[3]; VEI 0.07
  CCNA2 mRNA relative expression: 0.07
  CCNE2 mRNA relative expression: 0.07
  EZF3 mRNA relative expression: 0.08
  SMAD4 mRNA relative expression: 0.08
  SOS1 mRNA relative expression: 0.06
  TGFB1 mRNA relative expression: 0.05
[3]; VEI 0.08
  MAP2K1 mRNA relative expression: 0.03
  MMP2 mRNA relative expression: 0.00
  VEGFC mRNA relative expression: 0.00
[3]; VEI 0.09
  CCNE1 mRNA relative expression: 0.11
  CDK2 mRNA relative expression: 0.07
  KRAS mRNA relative expression: 0.01
  RAC1 mRNA relative expression: 0.00
  REL mRNA relative expression: 0.08
  STAT2 mRNA relative expression: 0.00
[3]; VEI 0.10
  CDKN1B mRNA relative expression: 0.09
  CDKN2A mRNA relative expression: 0.16
  RELA mRNA relative expression: 0.00
[3]; VEI 0.11
  AKT1 mRNA relative expression: 0.10
  PK3CB mRNA relative expression: 0.13
[3]; VEI 0.14
  FIGF mRNA relative expression: 0.11
  TP53 mRNA relative expression: 0.29
[3]; VEI 0.16
  EZF4 mRNA relative expression: 0.16
  NFKB2 mRNA relative expression: 0.02
[3]; VEI 0.17
  EZF1 mRNA relative expression: 0.14
  SMAD3 mRNA relative expression: 0.22
[3]; VEI 0.18
  STAT1 mRNA relative expression: 0.12
[3]; VEI 0.22
  BRAF mRNA relative expression: 0.13
[3]; VEI 0.23
  BIRC5 mRNA relative expression: 0.13
  JAK1 mRNA relative expression: 0.02
[3]; VEI 0.24
  CDK4 mRNA relative expression: 0.17
  EGFR mRNA relative expression: 0.16
[3]; VEI 0.25
  RAF1 mRNA relative expression: 0.06
[3]; VEI 0.27
  CCNB1 mRNA relative expression: 0.33
  ERBB2 mRNA relative expression: 0.04
  SRC mRNA relative expression: 0.03
[3]; VEI 0.31
  GRB2 mRNA relative expression: 0.23
[3]; VEI 0.35
  BCL2L1 mRNA relative expression: 0.21
  HSP90AA1 mRNA relative expression: 0.00
  NFKB1 mRNA relative expression: 0.09
[3]; VEI 0.37
  RHOA mRNA relative expression: 0.07
[3]; VEI 0.41
  ELK1 mRNA relative expression: 0.09
[3]; VEI 0.42
  RELB mRNA relative expression: 0.06
[3]; VEI 0.45
  CDC42 mRNA relative expression: 0.00
[3]; VEI 0.49
  CDKN1A mRNA relative expression: 0.07
[3]; VEI 0.50
  AKT2 mRNA relative expression: 0.46
[3]; VEI 0.53
  HBEGF mRNA relative expression: 0.39
[3]; VEI 1.03
  NOTCH1 mRNA relative expression: 0.32
[3]; VEI 1.38
  STAT6 mRNA relative expression: 0.01
[3]; VEI 4.45
  STAT3 mRNA relative expression: 0.07
PANC-1 cell line
  viability at 100 µg/mL: 100 ± 5.7%
  viability at 200 µg/mL: 97.4 ± 6.1%
  viability at 400 µg/mL: 83.9 ± 6.1%
  viability at 800 µg/mL: 19.2 ± 1.1%
